What was measured:
S100A8 = experiment: Microarray gene expression in brain, spleen and liver of Hsd:Athymic Nude-Foxn1nu mice (Example 7); format: in vivo, mouse
Procedure: (§1) Total RNA was extracted from samples using the RNeasy extraction kit (Qiagen). The quality and concentration of the RNA was analyzed using the Agilent 2100 bioanalyzer and NanoDrop™ ND-1000 (Thermo Scientific). Samples with RNA integrity number (RIN)<6.0 were discarded. Total RNA (0.5 μg) amplification and labelling with Cy3 or Cy5 was carried out using the Eberwein mRNA amplification procedure (Van Gelder et al, Proc Natl Acad Sci USA 1990, 87:1663-1667) employing the MessageAmp™ aRNA amplification kit from Ambion (Applied Biosystems) following the manufacturer's instructions with minor modifications. As hybridization controls, plant mRNAs were transcribed from a plasmid containing the Zea mays Xet (xyloglucan endo-transglycosylase) cDNA and from a plasmid containing the Zea mays Zmmyb42 cDNA, independently prepared Cy3 and Cy5 labelled aRNA from these two RNAs using the Eberwein mRNA amplification procedure (as disclosed in Cerdà et al, Gen Comp Endocrinol 2008, 156:470-481).
(§2) The Cy3- and Cy5-labelled cRNAs and spikes were combined and hybridized to the microarray described in Example 2.6 for 17 h at 60° C. using Agilent's gaskets G2534-60002, G2534A hybridization chambers and DNA Hybridization Oven G2545A, according to the manufacturer's instructions. More specifically, equal amounts of Cy3 and Cy5 labeled Xet aRNA as well as equal amounts of Cy3 and Cy5 labeled Zmmyb42 aRNA were spiked into each mixture hybridized to the array. Arrays were washed and raw data were obtained using Agilent's DNA Microarray Scanner G2505B and Feature Extraction software (v10.1). The raw fluorescence intensity data were processed using applicant's proprietary software, and consists in the following operations:
(§3) Data normalization was carried out by an improved version of the nonlinear Q-splines normalization method (Workman et al., Genome Biol 2002, 3(9):research0048.1-0048.16). Normalization results were presented graphically as MA plots, as first described by Dudoit et al (Dudoit et al, Statistica Sinica, 2002, 12:111-139). Each point corresponds to a probe of the DNA array. M values (vertical axis) are the log-differential expression ratios. A values (horizontal axis) are the log-intensities of the spots. M and A are calculated from the Cy5 and Cy3 intensity values as of each spot. The DNA Array data is normalized using an improved version of non-linear Q-Splines normalization described by Workman et al., Genome Biol 2002, 3(9):research0048.1-0048.16. This process is useful to correct the deviation of the M values from the statistical assumption that most of the spots have M=0 in MA plots. The method allows the adjustment of all M values to form a cloud centered at M=0 in all intensity ranges. The data used to calculate the normalization fitting curve is the totality of the raw measurement dataset, excluding the signals for the probes for the spiked-in plant RNA controls and negative controls. In order to be able to normalize properly the data among all the experiments, the probe-set must include an important group of genes that should have no change (M=0) in the experiment. The normalization function is then applied to all the data, including controls.
(§4) Normalized and log-transformed data were used to calculate log 2 (sample/control) and Fold Change (FC) values. No background subtraction was applied to the signal intensity values during data processing, permitting robust selection of differentially expressed genes with low expression levels at the cost of potential sub-estimation of change when intensity levels are close to the array background level.
(§5) Powered Compound 3, 4 or 5 was dissolved in a 20% solution of 2-hydroxypropyl-R-cyclodextrin in water at the appropriate concentrations, vortexed and placed in an ultrasonic bath for 5 minutes.
(§6) Hsd:Athymic Nude-Foxn1nu mice were maintained in air- and temperature-controlled cages with regular supply of water and food. A maximum of 6 mice/cage were raised. […]

S100A9 = experiment: as above; format: in vivo, mouse
Procedure: as §1, §2, §3, §4, §5, §6

[1] = SPLEEN, S100A8, 10 mg/kg vs VEH
[2] = SPLEEN, S100A9, 10 mg/kg vs VEH

NC(=O)CN[C@H]1C[C@@H]1c1ccc(OCc2ccccc2)cc1 (racemic) [Compound 3, 2-(((trans)-2-(4-(benzyloxy)phenyl)cyclopropyl)amino)acetamide]
Hybridization signal sample_Cy5 (S100A8; BRAIN, S100A8, 5 mg/kg): 229.714
log2 (sample/control) (S100A8; BRAIN, S100A8, 5 mg/kg vs VEH): −0.116
Hybridization signal sample_Cy5 (S100A8; BRAIN, S100A8, 10 mg/kg): 185.235
log2 (sample/control) (S100A8; BRAIN, S100A8, 10 mg/kg vs VEH): −0.3304
Hybridization signal sample_Cy5 (S100A8; BRAIN, S100A8, 20 mg/kg): 108.854
log2 (sample/control) (S100A8; BRAIN, S100A8, 20 mg/kg vs VEH): −1.218
Hybridization signal sample_Cy5 (S100A8; BRAIN, S100A8, 40 mg/kg): 89.5415
log2 (sample/control) (S100A8; BRAIN, S100A8, 40 mg/kg vs VEH): −1.598
Hybridization signal sample_Cy5 (S100A8; LIVER, S100A8, 5 mg/kg): 250.202
log2 (sample/control) (S100A8; LIVER, S100A8, 5 mg/kg vs VEH): −1.371
Hybridization signal sample_Cy5 (S100A8; LIVER, S100A8, 10 mg/kg): 280.387
log2 (sample/control) (S100A8; LIVER, S100A8, 10 mg/kg vs VEH): −1.1185
Hybridization signal sample_Cy5 (S100A8; LIVER, S100A8, 20 mg/kg): 266.01
log2 (sample/control) (S100A8; LIVER, S100A8, 20 mg/kg vs VEH): −1.318
Hybridization signal sample_Cy5 (S100A8; LIVER, S100A8, 40 mg/kg): 161.23
log2 (sample/control) (S100A8; LIVER, S100A8, 40 mg/kg vs VEH): −2.177
Hybridization signal sample_Cy5 (S100A8; SPLEEN, S100A8, 5 mg/kg): 4533.52
log2 (sample/control) (S100A8; SPLEEN, S100A8, 5 mg/kg vs VEH): −1.181
Hybridization signal sample_Cy5 (S100A8; SPLEEN, S100A8, 10 mg/kg): 6342.81
log2 (sample/control) (S100A8; [1]): −0.4706
Hybridization signal sample_Cy5 (S100A8; SPLEEN, S100A8, 20 mg/kg): 7014.94
log2 (sample/control) (S100A8; SPLEEN, S100A8, 20 mg/kg vs VEH): −0.5296
Hybridization signal sample_Cy5 (S100A8; SPLEEN, S100A8, 40 mg/kg): 4802.3
log2 (sample/control) (S100A8; SPLEEN, S100A8, 40 mg/kg vs VEH): −1.65
Hybridization signal sample_Cy5 (S100A9; BRAIN, S100A9, 5 mg/kg): 756.846
log2 (sample/control) (S100A9; BRAIN, S100A9, 5 mg/kg vs VEH): 0.1106
Hybridization signal sample_Cy5 (S100A9; BRAIN, S100A9, 10 mg/kg): 465.025
log2 (sample/control) (S100A9; BRAIN, S100A9, 10 mg/kg vs VEH): −0.5589
Hybridization signal sample_Cy5 (S100A9; BRAIN, S100A9, 20 mg/kg): 268.93
log2 (sample/control) (S100A9; BRAIN, S100A9, 20 mg/kg vs VEH): −1.388
Hybridization signal sample_Cy5 (S100A9; BRAIN, S100A9, 40 mg/kg): 208.488
log2 (sample/control) (S100A9; BRAIN, S100A9, 40 mg/kg vs VEH): −1.798
Hybridization signal sample_Cy5 (S100A9; LIVER, S100A9, 5 mg/kg): 820.026
log2 (sample/control) (S100A9; LIVER, S100A9, 5 mg/kg vs VEH): −1.469
Hybridization signal sample_Cy5 (S100A9; LIVER, S100A9, 10 mg/kg): 841.06
log2 (sample/control) (S100A9; LIVER, S100A9, 10 mg/kg vs VEH): −1.41
Hybridization signal sample_Cy5 (S100A9; LIVER, S100A9, 20 mg/kg): 862.896
log2 (sample/control) (S100A9; LIVER, S100A9, 20 mg/kg vs VEH): −1.44
Hybridization signal sample_Cy5 (S100A9; LIVER, S100A9, 40 mg/kg): 412.209
log2 (sample/control) (S100A9; LIVER, S100A9, 40 mg/kg vs VEH): −2.571
Hybridization signal sample_Cy5 (S100A9; SPLEEN, S100A9, 5 mg/kg): 10802.4
log2 (sample/control) (S100A9; SPLEEN, S100A9, 5 mg/kg vs VEH): −1.213
Hybridization signal sample_Cy5 (S100A9; SPLEEN, S100A9, 10 mg/kg): 15182.8
log2 (sample/control) (S100A9; [2]): −0.5812
Hybridization signal sample_Cy5 (S100A9; SPLEEN, S100A9, 20 mg/kg): 15717.4
log2 (sample/control) (S100A9; SPLEEN, S100A9, 20 mg/kg vs VEH): −0.5179
Hybridization signal sample_Cy5 (S100A9; SPLEEN, S100A9, 40 mg/kg): 13461.8
log2 (sample/control) (S100A9; SPLEEN, S100A9, 40 mg/kg vs VEH): −1.719

CN1CCN(C(=O)CN[C@H]2C[C@@H]2c2ccc(OCc3ccccc3)cc2)CC1 (racemic) [Compound 4, 2-(((trans)-2-(4-(benzyloxy)phenyl)cyclopropyl)amino)-1-(4-methylpiperazin-1-yl)ethan-1-one]
Hybridization signal sample_Cy5 (S100A8; BRAIN, S100A8, 1 mg/kg): 106.74
log2 (sample/control) (S100A8; BRAIN, S100A8, 1 mg/kg vs VEH): −1.761
Hybridization signal sample_Cy5 (S100A8; BRAIN, S100A8, 3 mg/kg): 65.756
log2 (sample/control) (S100A8; BRAIN, S100A8, 3 mg/kg vs VEH): −2.35
Hybridization signal sample_Cy5 (S100A8; BRAIN, S100A8, 10 mg/kg): 46.781
log2 (sample/control) (S100A8; BRAIN, S100A8, 10 mg/kg vs VEH): −3.042
Hybridization signal sample_Cy5 (S100A8; LIVER, S100A8, 1 mg/kg): 220.788
log2 (sample/control) (S100A8; LIVER, S100A8, 1 mg/kg vs VEH): −0.8718
Hybridization signal sample_Cy5 (S100A8; LIVER, S100A8, 3 mg/kg): 211.114
log2 (sample/control) (S100A8; LIVER, S100A8, 3 mg/kg vs VEH): −1.181
Hybridization signal sample_Cy5 (S100A8; LIVER, S100A8, 10 mg/kg): 172.461
log2 (sample/control) (S100A8; LIVER, S100A8, 10 mg/kg vs VEH): −1.335
Hybridization signal sample_Cy5 (S100A8; SPLEEN, S100A8, 1 mg/kg): 6016.2
log2 (sample/control) (S100A8; SPLEEN, S100A8, 1 mg/kg vs VEH): −1.312
Hybridization signal sample_Cy5 (S100A8; SPLEEN, S100A8, 3 mg/kg): 1854.43
log2 (sample/control) (S100A8; SPLEEN, S100A8, 3 mg/kg vs VEH): −3.148
Hybridization signal sample_Cy5 (S100A8; SPLEEN, S100A8, 10 mg/kg): 1214.31
log2 (sample/control) (S100A8; [1]): −3.587
Hybridization signal sample_Cy5 (S100A9; BRAIN, S100A9, 1 mg/kg): 306.245
log2 (sample/control) (S100A9; BRAIN, S100A9, 1 mg/kg vs VEH): −2.143
Hybridization signal sample_Cy5 (S100A9; BRAIN, S100A9, 3 mg/kg): 132.716
log2 (sample/control) (S100A9; BRAIN, S100A9, 3 mg/kg vs VEH): −3.286
Hybridization signal sample_Cy5 (S100A9; BRAIN, S100A9, 10 mg/kg): 78.7372
log2 (sample/control) (S100A9; BRAIN, S100A9, 10 mg/kg vs VEH): −4.222
Hybridization signal sample_Cy5 (S100A9; LIVER, S100A9, 1 mg/kg): 666.426
log2 (sample/control) (S100A9; LIVER, S100A9, 1 mg/kg vs VEH): −1.192
Hybridization signal sample_Cy5 (S100A9; LIVER, S100A9, 3 mg/kg): 490.218
log2 (sample/control) (S100A9; LIVER, S100A9, 3 mg/kg vs VEH): −1.632
Hybridization signal sample_Cy5 (S100A9; LIVER, S100A9, 10 mg/kg): 386.758
log2 (sample/control) (S100A9; LIVER, S100A9, 10 mg/kg vs VEH): −1.928
Hybridization signal sample_Cy5 (S100A9; SPLEEN, S100A9, 1 mg/kg): 13748.6
log2 (sample/control) (S100A9; SPLEEN, S100A9, 1 mg/kg vs VEH): −1.579
Hybridization signal sample_Cy5 (S100A9; SPLEEN, S100A9, 3 mg/kg): 3824.62
log2 (sample/control) (S100A9; SPLEEN, S100A9, 3 mg/kg vs VEH): −3.541
Hybridization signal sample_Cy5 (S100A9; SPLEEN, S100A9, 10 mg/kg): 2502.64
log2 (sample/control) (S100A9; [2]): −4.161

Reference: patent publication US20180284095A1, “BIOMARKERS ASSOCIATED WITH LSD1 INHIBITORS AND USES THEREOF” (Oryzon Genomics, S.A., priority 2015, published 2018)
